Literature values in US12661367B2, “Streptomyces spororaveus strain and a new antibiotics against bacteria and fungi” (National Taipei University of Technology, priority 2022, dated 2026).

Tests used:
[1] = orally used

Question: Which results are given for C[C@@H]1C/C=C/C=C/C=C/C=C/[C@H](O[C@@H]2O[C@H](C)[C@@H](O)[C@H](N)[C@@H]2O)C[C@@H]2O[C@](O)(C[C@@H](O)C[C@H]3O[C@@H]3/C=C/C(=O)O1)C[C@H](O)[C@H]2C(=O)O [natamycin]?
Answer: bioavailability [1]: low bioavailability; solubility in water: nearly insoluble in water
